The test system of assay [1] is isolated portal vein preparation / paced isolated papillary heart muscle preparation. Description: Specificity towards smooth muscle relaxation: isolated portal vein versus paced papillary heart muscle in an organ bath. Conditions: "separation" value: averaged difference of -log ED50 portal vein (vasodilatation) and -log ED50 papillary muscle (myocardial depression), transformed into numeric format. Also noted: species or system Wistar rats. The procedure:
The specificity towards smooth muscle relaxation was examined as follows: The isolated portal vein preparation of Wistar rats was mounted in an organ bath together with a paced isolated papillary heart muscle preparation of the same animal. The integrated contractile activity of the portal vein smooth muscle and the peak force amplitude of the papillary, myocardial, preparation were recorded. The respective activities during a 30 min control period were set as 100 per cent and the ensuing activities under the influence of an agent under study were expressed as a percentage thereof. The agent was administered at 10 min intervals and the potency for vasodilatation(-log ED50 of-portal vein) and that of myocardial depression (-log ED50 of papillary muscle) were determined by interpolation from the concentration-effect relationships determined in each experiment. A "separation" value was determined for each compound by averaging the differences of the -log ED50 values for vasodilatation and myocardial depression, respectively, obtained in the experiments. This logarithmic separation value was transformed into numeric format and entered into table 2.

The subject of assay [2] is spontaneously hypertensive rats (SHR) of the Okamoto strain. Description: Antihypertensive effect in conscious, unrestrained spontaneously hypertensive rats, oral dosing. The format is in vivo. The settings on record: Rattus norvegicus; dose giving 20 per cent reduction of mean arterial BP, by interpolation; oral intubation, cumulated doses at 2 hour intervals, suspended in methocel solution. The procedure:
The antihypertensive effect of the compounds was tested in conscious, unrestrained spontaneously hypertensive rats (SHR) of the Okamoto strain. The animals had been prepared by prior implantation of indwelling catheters in the abdominal aorta via the femoral artery. Mean arterial blood pressure (MABP) and heart rate were continuously monitored. After a 2 hour control period the compound under study was administered by oral intubation at 2 hour intervals, suspended in methocel solution (5 ml/kg bodyweight). The cumulated doses were […] bodyweight. The antihypertensive response, i.e. the BP reduction to each dose, was expressed as a percentage of the initial control BP level and plotted against the dose on a logarithmic scale. The dose which would give 20 per cent BP reduction was then determined by interpolation.

For the compound `CCOC(=O)C1=C(C(C)C)NC(C)=C(C(=O)OC)C1c1cccc(Cl)c1Cl` (stereo not drawn) [Example 1, 2-isopropyl-4-(2,3-dichlorophenyl)-6-methyl-1,4-dihydropyridine-3,5-dicarboxylic acid-3-ethylester-5-methylester], in assay [1], the Ratio heart vasc. came out at 98. In assay [2], this compound displayed an ED20 of 2.5 µmol/kg.

For `COC(=O)C1=C(C)NC(C)=C(C(=O)OC)C1c1ccccc1[N+](=O)[O-]` [Nifedipin, 2,6-dimethyl-4-(2-nitrophenyl)-1,4-dihydropyridine-3,5-dicarboxylic acid-3,5-dimethylester, reference compound], the Ratio heart vasc. in assay [1] turned out to be 15. The ED20 in assay [2] came out at 5 µmol/kg.

In the case of `CCOC(=O)C1=C(COC)NC(C)=C(C(=O)OC)C1c1cccc(Cl)c1Cl` (stereo not drawn) [Example 2, 2-methoxymethyl-4-(2,3-dichlorophenyl)-6-methyl-1,4-dihydropyridine-3,5-dicarboxylic acid-3-ethylester-5-methylester], the Ratio heart vasc. in assay [1] came to 158. Also, the ED20 in assay [2] was 2 µmol/kg.

These data come from EP0031801A2, “6-Substituted 4-(2',3'-dichlorophenyl)-2-methyl-1,4-dihydropyridine-3,5-dicarboxylic acid diesters having hypotensive properties as well as process for their preparation and pharmaceutical preparations containing same” (priority 1979, dated 1981).
